{
  "source": "patent US4346094A",
  "about": "“3-Aryl-5-isothiazolecarboxylic acids and related compounds used to lower uric acid levels” (Eli Lilly and Company, priority 1980, dated 1982)",
  "key": {"[1]": {"assay": "oral acute toxicity in mice (LD50)", "conditions": "mouse, in vivo; for LD50: oral, mice, read-out: LD50 (dose which kills one-half of the animals); for therapeutic index (LD50/ED50): oral LD50 mice / oral ED50 rats, read-out: Ratio of LD50 to ED50", "from_the_text": "The compounds represented by the above formula are also relatively non-toxic. In column 3 of Table V are listed the oral LD50 for mice in mg. per kg. for each of the compounds of column 1 (dose which kills one-half of the animals). Finally, column 4 in Table V gives the ratio of LD50 to ED50. It will be seen that the ratio of the LD50 to the ED50 is quite high, giving a substantial margin of safety for using the compounds of this invention in treating gout in mammals, particularly humans."}, "[2]": {"system": "plasma uric acid", "assay": "in vivo lowering of plasma uric acid in rats, oral (ED50)", "conditions": "Rattus norvegicus, read-out: ED50 (dose which reduces plasma level of uric acid by one-half)", "procedure": "(§1) All of the compounds corresponding to formula I above which applicants have prepared are active in vivo in lowering plasma uric acid levels. […] The first method, the spectrofluorometric method, was modified from the procedure of Sumi et al., Clinica. Chimica. Acta., 73, 233 (1976). Rats were sacrificed by decapitation and their blood collected into vacutainer tubes containing heparin via heparinized glass funnels. The blood was centrifuged for 8 minutes at 4000 rpm after which time the plasma was separated and diluted 1:1 with water. Plasma protein was precipitated by addition of acetic acid to a final concentration of 0.007 molar and boiling the resulting mixture for 5 minutes in Sorval tubes. Clear deproteinized plasma was obtained after centrifugation of the resulting plasma for 30 minutes at 25,000 rpm. Uric acid was assayed as follows: 0.2 ml. aliquots of the clear deproteinized plasma were mixed with 120λ of uricase (0.045 mu/ml.) and incubated for 30 minutes at 27° C. 1.0 ml. of a p-hydroxyphenylacetic acid buffer was added. Samples obtained from feeding rats or dogs serial doses of the compound under test were incubated with the above buffer solution for 30 minutes at 27° C. Fluorescence of the solution was measured in quartz tubes using an Aminco Bowman-Spectrofluorimeter having excitation of 321 nm and emission at 412 nm. Five uric acid standards from 6-30 micromolar were assayed for each test and each standard yielded a linear curve.\nThe second method was called the HPLC-EC Detection method. Here, blood plasma was collected from rats as described above and from dogs in heparinized syringes from the cefalic vein in the forearm and centrifuged with Sure-Sep to separate plasma. Deproteninized plasma was prepared in each instance by first diluting one volume of plasma with one volume of an internal standard solution, 4 mcg./ml., and then addition of two volumes of 5% trichloroacetic acid. Standards were added to control plasma in the range of 0-8 mcg./ml. of uric acid. Samples obtained by feeding graded doses of drug under test to dogs or rats were mixed for 30 seconds and then centrifuged in an Eppendorf microcentrifuge. Supernates were diluted 1:10 in column buffer and assayed for uric acid. Internal standards used were 3-methyluric acid for the rat samples and 3,9-dimethyluric acid for dog samples. Assays were performed as follows using a Bioanalytic Systems Inc. LC-44 analyser and an electrochemical detector system based on an Altex model 110 pump coupled with a CP-O carbon paste electrodetector. Samples for assay were put into a DuPont 834 autosampler and automatically injected into a laboratory packed stainless steel column (4.1 mm id, 1/4\" od 25 cm.1) containing reverse phase packing (sperisorb. O.D. 5μ Regis Chemical Co.). The column buffers employed were 0.1 M disodium phosphate, 0.05 M citric acid and 10% methanol for rat samples; 0.1 M disodium phosphate, 10% methanol and citric acid titrated at pH 6.5 for dog samples. The same internal standards were employed as before. Retention times for uric acid, 3-methyluric acid and 3,9-dimethyluric acid were established. Uric acid levels were then calculated from peak areas by computer analysis. Table V which follows gives the oral ED50 in rats for a group of the preferred compounds of this invention (those in which the 3-position of the isothiazole ring carries a 3-trifluoromethylphenyl group). […]"}, "[3]": {"target": "T1, xanthine oxidase (Bos taurus, UniProt P80457)", "T1 construct": "purchased Sigma Chemical Company, St. Louis, Mo; host or cells: milk (grade III, chromatographically purified)", "T1 sequence (P80457 whole entry)": "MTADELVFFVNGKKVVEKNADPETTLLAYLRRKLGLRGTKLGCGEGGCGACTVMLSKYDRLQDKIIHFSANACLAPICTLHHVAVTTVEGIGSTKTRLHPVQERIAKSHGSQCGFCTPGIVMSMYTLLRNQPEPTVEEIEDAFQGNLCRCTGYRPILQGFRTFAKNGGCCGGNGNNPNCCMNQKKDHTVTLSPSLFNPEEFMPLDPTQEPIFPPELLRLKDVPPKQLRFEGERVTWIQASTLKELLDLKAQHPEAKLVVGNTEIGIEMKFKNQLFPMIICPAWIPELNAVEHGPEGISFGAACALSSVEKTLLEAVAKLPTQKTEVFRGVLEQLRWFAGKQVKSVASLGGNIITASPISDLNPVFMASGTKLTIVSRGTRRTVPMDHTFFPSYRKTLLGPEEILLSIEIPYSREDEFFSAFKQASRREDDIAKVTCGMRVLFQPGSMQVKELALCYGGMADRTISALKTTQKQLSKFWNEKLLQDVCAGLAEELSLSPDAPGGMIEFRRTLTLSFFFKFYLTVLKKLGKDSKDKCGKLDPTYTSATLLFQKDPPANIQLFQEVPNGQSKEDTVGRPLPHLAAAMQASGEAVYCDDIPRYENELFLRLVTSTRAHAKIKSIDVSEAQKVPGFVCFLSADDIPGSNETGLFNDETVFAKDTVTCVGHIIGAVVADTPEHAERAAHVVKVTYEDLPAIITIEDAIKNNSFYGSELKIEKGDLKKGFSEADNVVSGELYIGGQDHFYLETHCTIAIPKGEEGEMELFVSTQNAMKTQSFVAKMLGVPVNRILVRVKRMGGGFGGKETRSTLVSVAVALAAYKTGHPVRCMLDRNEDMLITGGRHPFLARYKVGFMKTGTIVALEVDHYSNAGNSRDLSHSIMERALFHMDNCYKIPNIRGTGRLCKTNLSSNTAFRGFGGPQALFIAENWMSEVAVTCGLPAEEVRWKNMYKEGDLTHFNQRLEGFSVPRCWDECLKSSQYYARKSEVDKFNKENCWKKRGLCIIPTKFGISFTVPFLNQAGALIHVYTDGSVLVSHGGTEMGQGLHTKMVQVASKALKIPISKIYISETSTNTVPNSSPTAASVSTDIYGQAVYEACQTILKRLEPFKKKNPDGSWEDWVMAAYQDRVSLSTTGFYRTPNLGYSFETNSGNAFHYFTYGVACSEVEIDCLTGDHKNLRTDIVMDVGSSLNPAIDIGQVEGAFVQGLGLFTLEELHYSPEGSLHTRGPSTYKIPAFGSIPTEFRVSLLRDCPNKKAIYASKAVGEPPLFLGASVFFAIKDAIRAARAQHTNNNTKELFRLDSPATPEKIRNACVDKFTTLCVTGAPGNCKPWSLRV", "assay": "in vitro xanthine oxidase assay (rate of uric acid formation from xanthine)", "type": "biochemical", "procedure": "Since uric acid is produced by the oxidation of, first, hypoxanthine to xanthine and, second, of xanthine to uric acid via the enzyme, xanthine oxidase, an inhibitor of xanthine oxidase in vivo would obviously decrease the uric acid concentrations in the blood.\nXanthine oxidase activity was measured at room temperature by the rate of uric acid formation from xanthine substrate. In a total volume of 1 ml., the incubation mixture contained 50 micromoles of potassium phosphate buffer at pH 7.4, 0.05 micromoles of xanthine and 0.01 units of enzyme preparation (chromatographically purified milk xanthine oxidase, grade III, obtained from Sigma Chemical Company, St. Louis, Mo.). The absorbence change at 292 nm was recorded by a Gilford recording spectrophotometer and the uric acid formed was calculated using an extinction coefficient of 12 mM^-1 Cm^-1 at 292 nm."}, "[4]": {"assay": "oral administration of ester and amides, percent inhibition in vivo", "procedure": "as §1\nThe second method was called the HPLC-EC Detection method. Here, blood plasma was collected from rats as described above and from dogs in heparinized syringes from the cefalic vein in the forearm and centrifuged with Sure-Sep to separate plasma. Deproteninized plasma was prepared in each instance by first diluting one volume of plasma with one volume of an internal standard solution, 4 mcg./ml., and then addition of two volumes of 5% trichloroacetic acid. Standards were added to control plasma in the range of 0-8 mcg./ml. of uric acid. […] Uric acid levels were then calculated from peak areas by computer analysis. […]"}, "[5]": {"conditions": "milk xanthine oxidase 0.01 units, 0.05 micromoles xanthine in 1 ml, pH 7.4, room temperature, 292 nm, read-out: I50 (concentration of drug which inhibits 50% of the oxidation of xanthine to uric acid by the xanthine oxidase preparation) (converted)"}},
  "note": "Where two headings read alike, the source gives them in different places.",
  "data": [
    {"smiles": "Nc1c(-c2cccc(C(F)(F)F)c2)nsc1C(=O)O", "note": "[R=3-CF3, R^1=H, 3-(3-trifluoromethylphenyl)-4-amino-5-isothiazolecarboxylic acid]", "values": [
      {"measurement": "LD50", "setting": "[1]", "value": "798 ± 66", "unit": "mg/kg"},
      {"measurement": "ED50", "setting": "[2]", "value": 17.5, "unit": "mg/kg"},
      {"measurement": "IC50", "setting": "[3]; [5]", "value": 76.3, "unit": "nM"}
    ]},
    {"smiles": "O=C(O)c1snc(-c2cccc(C(F)(F)F)c2)c1Br", "note": "[R=3-CF3, X=Br, 3-(3-trifluoromethylphenyl)-4-bromo-5-isothiazolecarboxylic acid]", "values": [
      {"measurement": "therapeutic index (LD50/ED50)", "setting": "[1]", "value": "~50"},
      {"measurement": "LD50", "setting": "[1]", "value": "~260", "unit": "mg/kg"},
      {"measurement": "ED50", "setting": "[2]", "value": 5.2, "unit": "mg/kg"},
      {"measurement": "IC50", "setting": "[3]", "value": 51.1, "unit": "nM"}
    ]},
    {"smiles": "O=C(O)c1snc(-c2cccc(C(F)(F)F)c2)c1Cl", "note": "[R=3-CF3, X=Cl, 3-(3-trifluoromethylphenyl)-4-chloro-5-isothiazolecarboxylic acid]", "values": [
      {"measurement": "therapeutic index (LD50/ED50)", "setting": "[1]", "value": 21.6},
      {"measurement": "LD50", "setting": "[1]", "value": "138 ± 12", "unit": "mg/kg"},
      {"measurement": "ED50", "setting": "[2]", "value": 6.4, "unit": "mg/kg"},
      {"measurement": "IC50", "setting": "[3]", "value": 32.5, "unit": "nM"}
    ]},
    {"smiles": "O=C(O)c1cc(-c2cccc(C(F)(F)F)c2)ns1", "note": "[R=3-CF3, X=H, 3-(3-trifluoromethylphenyl)-5-isothiazolecarboxylic acid]", "values": [
      {"measurement": "therapeutic index (LD50/ED50)", "setting": "[1]", "value": 13.4},
      {"measurement": "LD50", "setting": "[1]", "value": "201 ± 13", "unit": "mg/kg"},
      {"measurement": "ED50", "setting": "[2]", "value": 15, "unit": "mg/kg"},
      {"measurement": "IC50", "setting": "[3]; [5]", "value": 54.9, "unit": "nM"}
    ]},
    {"smiles": "O=C(O)c1snc(-c2cccc(C(F)(F)F)c2)c1O", "note": "[R=3-CF3, X=OH, 3-(3-trifluoromethylphenyl)-4-hydroxy-5-isothiazolecarboxylic acid]", "values": [
      {"measurement": "therapeutic index (LD50/ED50)", "setting": "[1]", "value": 40},
      {"measurement": "LD50", "setting": "[1]", "value": "727 ± 35", "unit": "mg/kg"},
      {"measurement": "ED50", "setting": "[2]", "value": 18, "unit": "mg/kg"},
      {"measurement": "IC50", "setting": "[3]; [5]", "value": 25.6, "unit": "nM"}
    ]},
    {"smiles": "Nc1c(-c2ccccc2)nsc1C(=O)O", "note": "[R=H, R^1=H, 3-phenyl-4-amino-5-isothiazolecarboxylic acid]", "values": [
      {"measurement": "IC50", "setting": "[3]; [5]", "value": 2130, "unit": "nM"}
    ]},
    {"smiles": "O=C(O)c1snc(-c2ccccc2)c1Cl", "note": "[R=H, X=Cl, 3-phenyl-4-chloro-5-isothiazolecarboxylic acid]", "values": [
      {"measurement": "IC50", "setting": "[3]; [5]", "value": 225, "unit": "nM"}
    ]},
    {"smiles": "O=C(O)c1cc(-c2ccccc2)ns1", "note": "[R=H, X=H, 3-phenyl-5-isothiazolecarboxylic acid]", "values": [
      {"measurement": "IC50", "setting": "[3]; [5]", "value": 2340, "unit": "nM"}
    ]},
    {"smiles": "O=C(O)c1snc(-c2ccccc2)c1O", "note": "[R=H, X=OH, 3-phenyl-4-hydroxy-5-isothiazolecarboxylic acid]", "values": [
      {"measurement": "IC50", "setting": "[3]; [5]", "value": 203, "unit": "nM"}
    ]},
    {"smiles": "NC(=O)c1snc(-c2cccc(C(F)(F)F)c2)c1N", "note": "[R=NH2, 3-(3-trifluoromethylphenyl)-4-amino-5-isothiazolecarboxamide]", "values": [
      {"measurement": "Percent Inhibition", "setting": "[4]; oral dosage 50 mg.kg", "value": 13, "unit": "%"}
    ]},
    {"smiles": "CNC(=O)c1snc(-c2cccc(C(F)(F)F)c2)c1N", "note": "[R=NHCH3, N-methyl 3-(3-trifluoromethylphenyl)-4-amino-5-isothiazolecarboxamide]", "values": [
      {"measurement": "Percent Inhibition", "setting": "[4]; oral dosage 25 mg.kg", "value": 32, "unit": "%"}
    ]},
    {"smiles": "COC(=O)c1snc(-c2cccc(C(F)(F)F)c2)c1N", "note": "[R=OCH3, Methyl 3-(3-trifluoromethylphenyl)-4-amino-5-isothiazolecarboxylate]", "values": [
      {"measurement": "Percent Inhibition", "setting": "[4]; oral dosage 25 mg.kg", "value": 64, "unit": "%"}
    ]}
  ]
}
